Data from patent US20190022257A1, “ULTRAFINE NANOPARTICLES AS AN IMAGING AGENT FOR DIAGNOSING A RENAL DISORDER” (priority 2016, published 2019).
Entries after “also recorded” stand apart in the source; their conditions may differ.

How the values were obtained:
[1] = system: glomerular and tubular renal disorder model induced by injection of anti-gbm antibodies; test: Arterial input function (AIF) by DCE MRI in anti-gbm glomerular and tubular renal disorder model with therapy (Example 6); type: in vivo, male CBA mice; settings: d7 and d14 post-induction, AGuIX 5 mM, DOTAREM 10 mM, 100 μl bolus
Experimental: The high temporal resolution DCE perfusion method with a period 2.5 s for 10 min, with injection of the imaging agent as a 100 μl bolus at […] (method described in Example 4) was applied on another model of glomerular and tubular renal disorder, i.e. model induced by injection of anti-gbm antibodies in the literature.
The DCE MRI acquisition protocol consists in injecting the two types of agents: reference DOTAREM or AGuIX, namely:
solution according to the invention: 100 μl of imaging agent dissolved in a 0.9% saline solution, with a 5 mM concentration of AguIX imaging agent, and
solution according to the prior art: 100 μl of imaging agent dissolved in a 0.9% saline solution, with a 10 mM concentration of DOTAREM imaging agent. […]
An additional parameter corresponding to the arrival of the imaging tracer in the organ, i.e. arterial input function AIF, was also recorded. Measured at the input of the organ studied, the AIF itself at the input of the kidney is an indicator of the functionality. The profile is recorded on the anatomical MRI image at the level of the renal arterial point on the dynamic images acquired at DCE high temporal resolution proposed. […]

UUO kidney [2] = test: High temporal resolution DCE perfusion MRI, UUO model (Example 4); type: in vivo, female BalbC/JRJ mice; settings: DOTAREM 10 mM
Experimental: It provides kinetic profiles of signal enhancement corresponding to the immediate arrival of the imaging agent in the tissue, in particular for probing the first glomerular pass.
The UUO model is induced by clamping the right ureter of female BalbC/JRJ mice according to a biochemically characterized protocol from the literature. All the manipulations of the animals were carried out in compliance with the institutional animal protocol guidelines described in Example 3.
8-week-old female mice of BalbC/JRJ type (n=6) were UUO-treated at the level of just one kidney, i.e. each mouse comprises one lesioned kidney (UUO kidney) and one healthy kidney (reference kidney). A batch of sham mice makes it possible to verify the validity of the contralateral reference with the MRI method developed. 2 batches of n=6 mice and n=6 shams were studied by dynamic MRI 3 days after induction.
The DCE MRI acquisition protocol consists in injecting the two types of imaging agents: reference DOTAREM and AGuIX, namely:
Solution according to the invention: 100 μl of imaging agent dissolved in a 0.9% saline solution, with a 5 mM concentration of AGuIX imaging agent.
Prior art solution: 100 μl of imaging agent dissolved in a 0.9% saline solution with 10 mM concentration of DOTAREM imaging agent. • i) The administration protocol is that of Example 3. • ii) The MRI acquisition protocol itself consists in recording sequential images by means of the T1-weighted FLASH MRI sequence (TR=TE=2.2 ms, spatial resolution 117×310 μm^2), temporal resolution 2.5 s for 10 min with 20 s of precontrast. […] T1 mapping in order to verify the concentration of Gd MRI agent is recorded. • iii) The digital processing method derived from method termed 3TP, three time Points, consists in defining 3 main points: basic reference intensity, point of maximum intensity of enhancement, final clearance time, and calculating the slopes of capture and of release of the agent. Next, a Mann-Whitney biostatistical study is applied to the slope parameters calculated for each of the 6 mice, and for each imaging agent.
Averaged collective method resulting in the value of T1max: • a) Searching for the time T corresponding to the maximum in the overall mean of the DCE MRI intensities. • b) Applying this max to each enhancement profile as Tmax. • c) Taking the mean of 6 enhancement values around the indexed value.

UUO kidney [3] = test: Dynamic MRI measurement of the enhancement in the kidney, UUO mice (Example 3); type: in vivo; settings: DOTAREM 10 mM, Example 1 nanoparticles 5 mM
Experimental: The images were acquired with a 7T 300 MHz spectrometer imager, equipped with a linear 1H radiofrequency coil dedicated to mice (Bruker, Karlsruhe, Germany).
The dynamic MRI studies of capture and release of the nanoparticles in the tissues were carried out in vivo and made it possible to determine the change in enhancement in the kidney.
All the manipulations of the animals were carried out in compliance with the institutional animal protocol guidelines in place at Paris Descartes University, submission CEEA34.JS.142.1 and approved by the Institute's animal research committee, and also the ethics protocols of the company regarding mouse inductions. […]
8-week-old female mice of BalbC/JRJ type (n=6) were UUO-treated at just one kidney, i.e. each mouse comprises one lesioned kidney (UUO kidney) and one healthy kidney (reference kidney). […] The physiological respiratory parameters were measured throughout the MRI studies using a nonmagnetic respiratory sensor system (the company SAM, US) and the body temperature was maintained by heating the cradle to the core. […]
A dynamic contrast enhanced DCE sequence was recorded using a specific sequence eliminating the free artefacts of movement in post treatment with a TR of 100 ms and a TE of 4 ms and a tilt angle of 80° in order to ensure T1 MRI weighting; a field of view (FOV) of 3 cm×3 cm and a final matrix of 256 by 256 points. […]

SMILES: CNC[C@H](O)[C@@H](O)[C@H](O)[C@H](O)CO.O=C([O-])CN1CCN(CC(=O)[O-])CCN(CC(=O)O)CCN(CC(=O)[O-])CC1.[Gd+3] [DOTAREM]
- AIF at the kidney input, control (carrier) mice vs MP mice [1]: identical
- decrease of DCE MRI signal between healthy and pathological kidney condition (UUO kidney [2]; UUO model, AGuIX 5 mM): 100%
- decrease of DCE MRI signal between healthy and pathological kidney condition, as factor (UUO kidney [2]; UUO model, AGuIX 5 mM): 2
- discrimination between healthy kidney and lesioned kidney (high time resolution DCE MRI) (UUO kidney [2]; intravenous, Example 1 nanoparticles 5 mM): cannot discriminate between a healthy kidney and a lesioned kidney
- enhancement profile in the renal cortex, UUO kidney vs reference kidney (high time resolution DCE MRI, Mann-Whitney improved 3TP) (UUO kidney [2]; intravenous, Example 1 nanoparticles 5 mM, 3 days after induction): enhancement profile is similar between UUO kidney (lesioned kidney) and reference kidney (healthy kidney)
- discrimination between healthy kidney and lesioned (UUO) kidney by MRI enhancement (UUO kidney [3]; intravenous, 100 μl, UUO mice): cannot discriminate between a healthy kidney and a lesioned kidney; also recorded: does not make it possible to significantly differentiate renal functionality of a healthy kidney and of an obstructed kidney; also recorded: does not make it possible to distinguish a healthy kidney from a kidney suffering from a renal disorder
- enhancement profile in the renal cortex, UUO kidney vs reference kidney (UUO kidney [3]; time course by MRI after intravenous administration): enhancement profile is similar between UUO kidney (lesioned kidney) and reference kidney (healthy kidney)
